The values that follow come from US20250197425A1, “2,6,9-TRISUBSTITUTED PURINES” (ASTRAZENECA AB, priority 2022, published 2025).

Data set [1] relates to POLR2A Ser2 phosphorylation (CDK9). As to the kind of experiment: POLR2A Ser2 phosphorylation imaging assay in MCF-7 cells. Type of data set: cell-based. To be noted: Homo sapiens, MCF7, 2 h, MCF-7 cells, 2 hours; read-out: POLR2A Ser2 phosphorylation IC50. The method, then: Compounds were tested to assess their effect on CDK9 activity in a cellular context. […] During the cell cycle, CDK9 is a component of a multiprotein complex that phosphorylates POLR2A Ser2 which results in transcription elongation.
[…] were fixed by addition of 40 μL/well of 8% paraformaldehyde and incubated for 10 minutes at room temperature. The plates were washed three times with 50 μL/well PBS using a Biotek EL406 plate washer and then permeabilized for 10 minutes at room temperature in 0.3% Triton X100 in PBS. After washing as before, the plates were blocked using 30 μL/well of 2% BSA (w/v) in PBS-T for over 30 minutes at room temperature. […] After washing in PBS as before, leaving each well in 40 μL of PBS, the plates were sealed and imaged on a Cell Insight imaging system (Thermo) with a 10× objective and 2 fields of view per well. POLR2A Ser2levels were normalized to controls and the IC50 values of test compounds determined using Genedata Screener software.

Data set [2] has as its system NPM phosphorylation (Thr199, CDK2-cyclin E complex). As to the kind of experiment: NPM phosphorylation imaging assay in MCF-7 cells. As to conditions: Homo sapiens, 4N DNA cells. Type of data set: cell-based. The method, then:
Compounds were tested to assess the effects of CDK2 inhibition in a cellular context. […] During the cell cycle, the CDK2-cyclin E complex phosphorylates NPM at Thr199 which is a prerequisite step for initiation of centrosome duplication.
The cells were fixed by addition of 40 μL/well of 8% paraformaldehyde and incubated at room temperature for 10 minutes. The plates were washed three times with 50 μL/well PBS using a Biotek EL406 plate washer and then permeabilized for 10 minutes at room temperature in 0.3% Triton X100 in PBS. After washing as before, the plates were blocked using 30 μL/well of 2% BSA (w/v) in PBS-T for at least 30 minutes at room temperature. […] Cells containing 4N DNA were selected using the Hoechst staining. Phospho-NPM levels were normalized to controls and the IC50 values of test compounds determined using Genedata Screener software.

The subject of data set [3] is MCF-7 cells. As to the kind of experiment: Cellular proliferation EdU assay, MCF-7. To be noted: Homo sapiens, MCF7, 48 h, EdU assay, two days; read-out: MCF-7 IC50. Type of data set: cell-based. The method, then:
(§1) Compounds were tested to assess inhibition of cellular proliferation in the breast cancer cell line MCF-7 and the CCNE1-amplified ovarian cell line OVCAR3.
(§2) MCF-7 and OVCAR3 cells in RPMI supplemented with 10% Fetal bovine serum were seeded into 384-well plates (Greiner, Kremsmunster, Austria; 781091), 30 μL/well, using a WellMate. The MCF7 and OVCAR3 cells were seeded at 800 and 1200 cells/well, respectively. Test compounds were added to the wells using an Echo 555 liquid handler and the plates were placed in incubator maintained at 37° C. and 5% CO2 and incubated for two days. On Day 2, an EdU assay was performed following the manufacturer's protocol (Thermo Fisher, C10351). The cells were read on an Acumen eX3 instrument. The IC50 values of test compounds were determined in Genedata by assessing the ratio of signal intensity at 488 nm to the area of signal at 405 nm.

Data set [4] can be described thus: CLint assessment in human liver microsomes (HLM). Type of data set: in vitro ADME. As to conditions: 1 μM. The protocol: After a preincubation with NADPH for 8 minutes, reactions were initiated through the addition of the test compound (final volume 250 μl) and incubated at 37° C. in a water bath for 30 minutes. […] Samples were shaken at 800 rpm for 2 minutes and centrifuged at 4000 rpm for 20 minutes at 4° C. to pellet precipitated protein. The supernatant fraction was diluted 1:5 with deionized water, shaken at 1000 rpm for 2 minutes, and further diluted 1:1 with deionized water. Samples were analyzed by LC-MS/MS. The t1/2 and the CLint of the compounds incubated in the LM, HLM, and HμREL assays as described above were calculated according to the following equations: […] where V (μl/×10^6 cells or mg protein) is the incubation volume (μl) divided by the number of cells (×10^6) or microsomal protein content (mg) in the incubation.
Background: Liver microsomes are vesicles of endoplasmic reticulum, rich in cytochrome P450 enzymes.

The nature of data set [5]: Aqueous thermodynamic solubility, shake-flask. The data set is classed as physicochemical. To be noted: aqueous phosphate buffer, 25 °C, pH 7.4, aqueous buffer, thermodynamic from solid, phosphate buffer 0.1 M, pH 7.4, 24 hours. The method, then: The DMSO was evaporated and the dried compounds were equilibrated in glass vials in aqueous phosphate buffer (0.1 M, pH 7.4) for 24 hours at 25° C. under constant stirring. The portion with the dissolved compound was then separated from the remainder through a double centrifugation with a tip wash in between to ensure that no residues of the dried compound were interfering. The solutions were diluted with purified water before quantification using UPLC/MS/MS.

The target of data set [6] is CDK4:CCND1 (Homo sapiens (Human), UniProt P11802). As to the kind of experiment: NanoBRET assay in MCF-7 cells, CDK4. The data set is classed as cell-based. To be noted: NanoBRET, transfected MCF-7 cells, 2 hours; n = 1 or average; read-out: CDK4 IC50. The method, then: (§3) Compounds were tested in breast cancer cell line MCF-7 to assess inhibition of CDK1, CDK2, and CDK4 activity. MCF-7 cells transiently transfected with CDK1:CCNB1, CDK2:CCNE1, or CDK4:CCND1 were harvested at a density of 1E5 cells/mL in complete media, seeded 20 μL/well into 384-well Greiner 784080 plates using a Multidrop Combi, and incubated overnight at 37° C. and 5% CO2. The next day media were evacuated from the wells using the Bluewasher centrifugal plate washer (Bluecatbio) and 10 μL/well phenol red free OptiMEM was then added using a Multidrop Combi. […] Immediately after compound addition, a Tecan HP300 dispensor was used to dispense the relevant NanoBRET™ tracer to the CDK1 wells (12.5 nl, 400 μM, NanoBRET™ TE Tracer K-9), the CDK2 wells (12.5 nl, 200 μM, NanoBRET™ TE Tracer K-9), and the CDK4 wells (8 nl, 100 μM, NanoBRET™ TE Tracer K-7) and the plates were incubated for 2 hours at 37° C. and 5% CO2. The plates were allowed to cool for 10 minutes at room temperature and 5 μL/well of TE Nano-Glo®Substrate/Inhibitor at 2.4 μM and 1:500 respectively (N2162 Promega) was added. The plates were incubated in subdued lighting for 10 minutes and then read on a Pherastar FS plate reader (BMG Technologies) using a NanoBRET™ filter module (460±80 nm/610 nm-LP). The ratio values were normalized to controls and the IC50 values of test compounds determined using Genedata Screener software.
Sequence of CDK4:CCND1 (P11802 whole entry): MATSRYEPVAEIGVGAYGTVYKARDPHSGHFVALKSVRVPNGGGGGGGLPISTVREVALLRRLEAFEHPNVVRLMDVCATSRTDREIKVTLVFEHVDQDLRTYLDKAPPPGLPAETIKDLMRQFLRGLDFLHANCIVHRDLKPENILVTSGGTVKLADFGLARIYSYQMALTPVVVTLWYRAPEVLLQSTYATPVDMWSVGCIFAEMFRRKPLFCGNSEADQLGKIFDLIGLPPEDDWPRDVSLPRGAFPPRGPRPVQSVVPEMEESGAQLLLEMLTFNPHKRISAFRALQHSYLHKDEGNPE
Sequence of CDK4:CCND1 (P24385 whole entry partner): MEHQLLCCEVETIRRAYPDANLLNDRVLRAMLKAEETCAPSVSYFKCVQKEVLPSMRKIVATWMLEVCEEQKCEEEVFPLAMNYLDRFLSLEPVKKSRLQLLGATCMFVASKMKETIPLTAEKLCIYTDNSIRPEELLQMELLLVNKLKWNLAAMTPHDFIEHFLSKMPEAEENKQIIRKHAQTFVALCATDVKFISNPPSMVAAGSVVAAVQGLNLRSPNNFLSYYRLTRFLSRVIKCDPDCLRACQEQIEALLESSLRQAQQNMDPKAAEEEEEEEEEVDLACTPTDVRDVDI
On the technique in general: Bioluminescence resonance energy transfer reports proximity on the nanometre scale.

In data set [7] the test system is OVCAR3 cells. As to the kind of experiment: Cellular proliferation EdU assay, OVCAR3. Type of data set: cell-based, human. As to conditions: Homo sapiens, OVCAR-3, 48 h, EdU assay, two days; read-out: OVCAR3 IC50. The protocol: as §1, §2
For data set [8], the target named is CDK1:CCNB1 (Homo sapiens (Human), UniProt P06493). As to the kind of experiment: NanoBRET assay in MCF-7 cells, CDK1. To be noted: NanoBRET, transfected MCF-7 cells, 2 hours; n = 1 or average; read-out: CDK1 IC50. The data set is classed as cell-based. The method, then: as §3
Sequence of CDK1:CCNB1 (P06493 whole entry): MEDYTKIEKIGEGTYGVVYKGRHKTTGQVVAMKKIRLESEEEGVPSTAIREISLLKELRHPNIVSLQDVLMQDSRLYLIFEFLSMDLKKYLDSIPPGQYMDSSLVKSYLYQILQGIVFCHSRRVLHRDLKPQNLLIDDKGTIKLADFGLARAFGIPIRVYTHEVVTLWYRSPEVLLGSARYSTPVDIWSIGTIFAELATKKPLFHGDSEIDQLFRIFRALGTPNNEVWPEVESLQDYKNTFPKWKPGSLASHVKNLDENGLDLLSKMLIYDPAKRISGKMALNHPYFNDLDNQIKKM
Sequence of CDK1:CCNB1 (P14635 whole entry partner): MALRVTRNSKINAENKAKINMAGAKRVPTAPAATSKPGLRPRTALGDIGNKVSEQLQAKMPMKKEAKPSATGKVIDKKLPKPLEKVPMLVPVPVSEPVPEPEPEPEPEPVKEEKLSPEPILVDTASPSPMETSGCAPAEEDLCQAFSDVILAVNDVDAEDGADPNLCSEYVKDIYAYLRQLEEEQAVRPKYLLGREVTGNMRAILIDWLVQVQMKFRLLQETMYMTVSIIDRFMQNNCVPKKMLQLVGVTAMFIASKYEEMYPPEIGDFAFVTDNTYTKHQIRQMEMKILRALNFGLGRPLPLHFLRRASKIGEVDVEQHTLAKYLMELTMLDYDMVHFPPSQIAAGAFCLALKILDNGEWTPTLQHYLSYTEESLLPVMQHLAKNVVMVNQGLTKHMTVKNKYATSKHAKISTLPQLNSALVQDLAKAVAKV
For data set [9], the target named is CDK2:CCNE1 (Homo sapiens (Human), UniProt P24941). As to the kind of experiment: NanoBRET assay in MCF-7 cells, CDK2. The data set is classed as cell-based. To be noted: transfected MCF-7 cells, 2 hours, n = 1 or average. The protocol:
as §3, with “MCF-7 cells transiently transfected with CDK1:CCNB1, CDK2:CCNE1, or CDK4:CCND1 were harvested at a density of 1E5 cells/mL in complete media, seeded 20 μL/well into 384-well Greiner 784080 plates using a Multidrop Combi, and incubated overnight at 37° C. and 5% CO2.” left out, “The plates were allowed to cool for 10 minutes at room temperature and 5 μL/well of TE Nano-Glo®Substrate/Inhibitor at 2.4 μM and 1:500 respectively (N2162 Promega) was added.” left out

The structures appear in SMILES notation. Converted amounts (≈) assume the structure as drawn.

For orientation: IC50 means the midpoint of a concentration-inhibition curve. One may read the solubility as the concentration that dissolves in the medium under given conditions. A higher solubility goes with a readily soluble substance. For `CC(C)n1cnc2c(N[C@H]3CCN(S(C)(=O)=O)C3)nc(N[C@@H](CO)C3CC3)nc21` [Example 30, (R)-2-cyclopropyl-2-((9-isopropyl-6-(((S)-1-(methylsulfonyl)-pyrrolidin-3-yl)amino)-9H-purin-2-yl)amino)ethanol], the half-maximal inhibitory concentration (IC50) is more than 30000 nM in data set [1]; 198 nM in [2] (MCF7, 2 hours); 785 nM in data set [3]; 5700 nM in data set [6]; 191 nM in data set [7]; 746 nM in data set [8]. The molecule further gave an IC50 in [9] of 19 nM. In addition, the “HLM CLint” value in data set [4] is 191 µL/min/mg. Further, the solubility at 24 h in data set [5] worked out at 276 µM (≈ 117 µg/mL).

Regarding `CC[C@H](Nc1nc(N[C@H]2CCN(S(=O)(=O)c3cnn(C)c3)C2)c2ncn(C(C)C)c2n1)[C@@H](C)O` [Example 31, (2R,3S)-3-((9-isopropyl-6-(((S)-1-((1-methyl-1H-pyrazol-4-yl)sulfonyl)pyrrolidin-3-yl)amino)-9H-purin-2-yl)amino)pentan-2-ol], the IC50 in data set [1] was more than 30000 nM; in data set [2] (MCF7, 2 hours), 1050 nM; in data set [3], 3160 nM; in data set [6] it was more than 29700 nM; in [7], 964 nM; in [8] it was 6290 nM. In [9], this molecule had an IC50 of 39 nM. Moreover, the “HLM CLint” value in data set [4] was determined as 154 µL/min/mg. The molecule also returned a solubility at 24 h in data set [5] of more than 1000 µM.

Regarding `CC(C)[C@H](CO)Nc1nc(N[C@@H]2CN(S(C)(=O)=O)C[C@H]2F)c2ncn(C(C)C)c2n1` [Example 33, (R)-2-((6-(((3R,4R)-4-fluoro-1-(methylsulfonyl)pyrrolidin-3-yl)amino)-9-isopropyl-9H-purin-2-yl)amino)-3-methylbutan-1-ol], the IC50 was more than 30000 nM in data set [1]; 752 nM in [2] (MCF7, 2 hours); 2970 nM in data set [3]; 8100 nM in data set [6]; 880 nM in data set [7]; 5750 nM in [8]. Also, half-maximal inhibition in data set [9] (IC50) was put at 26 nM.

Consider `CCn1cnc2c(N[C@H]3CCN(S(=O)(=O)NC)C3)nc(-c3cccc4c3CC[C@H]4O)nc21` [Example 2, (S)-3-((9-ethyl-2-((R)-1-hydroxy-2,3-dihydro-1H-inden-4-yl)-9H-purin-6-yl)amino)-N-methylpyrrolidine-1-sulfonamide], for which the IC50 in data set [1] was determined as 15400 nM; in [2] (MCF7, 2 h), 301 nM; in data set [3], 1360 nM; in data set [6] it was 17800 nM; in data set [7], 404 nM; in [8], 904 nM. In [9], inhibition was half-maximal at 29 nM (IC50). Moreover, in [4], the “HLM CLint” value turned out to be 61.6 µL/min/mg. Moreover, in [5], the solubility at 24 h was determined as 55 µM (≈ 25.2 µg/mL).

Take `CC[C@H](CO)Nc1nc(N[C@H]2CCN(S(C)(=O)=O)C2)c2ncn(CC)c2n1` [Example 38, (R)-2-((9-ethyl-6-(((S)-1-(methylsulfonyl)pyrrolidin-3-yl)amino)-9H-purin-2-yl)amino)butan-1-ol]: the IC50 in data set [1] is more than 30000 nM; in [2] (MCF7, 2 hours), 392 nM; in data set [3], 2310 nM; in data set [6], 6000 nM; in data set [7], 782 nM; in [8] it was 1040 nM. Moreover, in [9], half-maximal inhibition (IC50) was put at 21 nM.

As to `CC[C@H](Nc1nc(N[C@H]2CCN(S(=O)(=O)NCC(F)(F)F)C2)c2ncn(CC)c2n1)[C@@H](C)O` [Example 4, (S)-3-((9-ethyl-2-(((2R,3S)-2-hydroxypentan-3-yl)amino)-9H-purin-6-yl)amino)-N-(2,2,2-trifluoroethyl)pyrrolidine-1-sulfonamide], the IC50 in data set [1] was more than 30000 nM; in [2] (MCF7, 2 hours), 164 nM; in data set [3] it was 685 nM; in data set [7] it was 294 nM. The same molecule came in with a solubility at 24 h in [5] of 57 µM (≈ 28.2 µg/mL).

With `CC[C@H](Nc1nc(N[C@H]2CCN(S(=O)(=O)NC)C2)c2ncn(CF)c2n1)[C@@H](C)O` [Example 54, (S)-3-((9-(fluoromethyl)-2-(((2R,3S)-2-hydroxypentan-3-yl)amino)-9H-purin-6-yl)amino)-N-methylpyrrolidine-1-sulfonamide], the IC50 in data set [1] is more than 30000 nM; in [2] (MCF7, 2 hours) it was 334 nM; in data set [3], 1370 nM; in data set [7], 756 nM. In [5], this molecule registered a solubility at 24 h of 593 µM (≈ 255 µg/mL).
